From publication PMC3722118, “Hellebrin and its aglycone form hellebrigenin display similar in vitro growth inhibitory effects in cancer cells and binding profiles to the alpha subunits of the Na^+/K^+-ATPase” (Molecular Cancer, 2013)
Like-named read-outs stand apart in the source and are kept apart here.

Assays:
[1] = test system: T98G glioma cells; experiment: MTT colorimetric in vitro growth inhibition assay; assay type: cell-based, human; conditions: read-out: IC50 (nM) T98G
Text: (§1) The histological types and origins of the eight human cancer cell lines that were used for the MTT colorimetric assay are detailed in the legend of Table 1. Two mouse cancer cell lines were also used, the CT26.WT colon cancer cell line (ATCC code CRL-2638) and the B16F10 melanoma cell line (ATCC code CRL-6475). Both cell lines were obtained from the American Type Culture Collection (ATCC, Manassas, VA). A control cell line (human NHDF fibroblasts) was obtained from PromoCell (code c-12300; Heidelberg, Germany). The cell lines detailed in Figure 2A are a generous gift from the National Cancer Institute (NCI, Bethesda, USA) to Steven Karlish’s lab.
(§2) The cancer cells were cultured in RPMI (Lonza, Verviers, Belgium) medium supplemented with 10% heat-inactivated fetal calf serum (Lonza). All culture media were supplemented with 4 mM glutamine, 100 μg/mL gentamicin, 200 U/mL penicillin and 200 μg/mL streptomycin (Lonza). The NHDF fibroblasts were cultured in Lonza medium cc3132 KT FGM-2 BulletKit.
(§3) The overall growth level of the human cancer cell lines was determined using a colorimetric MTT (3-(4,5-dimethylthiazol-2yl)-2,5-diphenyltetrazolium bromide, Sigma, Belgium) assay as detailed previously. Briefly, this test measures the number of metabolically active (thus living) cells that are able to transform the yellow MTT into the blue formazan dye via a mitochondrial reduction involving succinate dehydrogenase. The amount of formazan obtained at the end of the experiment (measured by spectrophotometry) is directly proportional to the number of living cells. The determination of the optical density in the control compared to the treated cells therefore enables quantitative measurements of the effects of compounds on the growth of normal as well as cancer cells in vitro.
(§4) Each experimental condition was performed in six replicates.

[2] = test system: SKMEL-28 melanoma cells; experiment: MTT colorimetric in vitro growth inhibition assay; assay type: cell-based, human; conditions: read-out: IC50 (nM) SKMEL-28
Text: as §1, §2, §3, §4

[3] = test system: U373 glioma cells; experiment: MTT colorimetric in vitro growth inhibition assay; assay type: cell-based, human; conditions: read-out: IC50 (nM) U373
Text: as §1, §2, §3, §4

[4] = test system: PC-3 prostate cancer cells; experiment: MTT colorimetric in vitro growth inhibition assay; assay type: cell-based, human; conditions: read-out: IC50 (nM) PC-3
Text: as §1, §2, §3, §4

[5] = test system: Hs683 glioma cells; experiment: MTT colorimetric in vitro growth inhibition assay; assay type: cell-based, human; conditions: read-out: IC50 (nM) Hs683
Text: as §1, §2, §3, §4

[6] = test system: A549 NSCLC cells; experiment: MTT colorimetric in vitro growth inhibition assay; assay type: cell-based, human; conditions: read-out: IC50 (nM) A549
Text: as §1, §2, §3, §4

[7] = test system: HT-29 colon cancer cells; experiment: MTT colorimetric in vitro growth inhibition assay; assay type: cell-based, human; conditions: read-out: IC50 (nM) HT-29
Text: as §1, §2, §3, §4

[8] = test system: MCF-7 breast cancer cells; experiment: MTT colorimetric in vitro growth inhibition assay; assay type: cell-based, human; conditions: read-out: IC50 (nM) MCF-7
Text: as §1, §2, §3, §4

[9] = test system: human cancer cells (A549, U373, Hs683, T98G, MCF-7, SKMEL-28, PC-3, HT-29); experiment: MTT growth inhibition, mean over the eight human cancer cell lines; assay type: cell-based; conditions: Homo sapiens, 72 h, read-out: IC50 (nM) Mean ± SEM
Text: as §1, §2, §3, §4

[10] = target: T1, human α1β1 NaK complex (Homo sapiens, UniProt P05023); conditions: 3H-ouabain displacement; ref Katz et al. [5]; read-out: Affinity (nM) α-1 (KD ± SEM); cited from earlier work
T1 construct: made in house; host or cells: Pichia pastoris strain SMD1165 (membranes)

[11] = target: T2, human α2β1 NaK complex (Homo sapiens, UniProt P50993); conditions: ref Katz et al. [5], cited from earlier work; for Kd: 3H-ouabain displacement, read-out: Affinity (nM) α-2 (KD ± SEM); for Selectivity α-1 / α-2: ratio of KD α-1 to KD α-2
T2 construct: made in house; host or cells: Pichia pastoris strain SMD1165 (membranes)

[12] = target: T3, human α3β1 NaK complex (Homo sapiens, UniProt P13637); conditions: ref Katz et al. [5], cited from earlier work; for Kd: 3H-ouabain displacement, read-out: Affinity (nM) α-3 (KD ± SEM); for Selectivity α-1 / α-3: ratio of KD α-1 to KD α-3
T3 construct: made in house; host or cells: Pichia pastoris strain SMD1165 (membranes)

[13] = three days of culture, * three independent experiments, ** one experiment, six replicates

What does the source list for `C[C@H]1O[C@@H](O[C@H]2[C@@H](O)C[C@H](O[C@H]3[C@@H](O)C[C@H](O[C@H]4CC[C@@]5(C)[C@H](CC[C@@H]6[C@@H]5CC[C@]5(C)[C@@H](C7=CC(=O)OC7)[C@@H](O)C[C@]65O)C4)O[C@@H]3C)O[C@@H]2C)C[C@H](O)[C@@H]1O` [Gitoxin]?
IC50 ([1]; Homo sapiens, T98G, 72 h): 174 nM; IC50 ([2]; Homo sapiens, SK-MEL-28, 72 h): 679 nM; IC50 ([3]; Homo sapiens, U373 MG, 72 h): 351 nM; IC50 ([4]; Homo sapiens, 72 h): 361 nM; IC50 ([5]; Homo sapiens, Hs 683, 72 h): 79 nM; IC50 ([6]; Homo sapiens, A549, 72 h): 68 nM; IC50 ([7]; Homo sapiens, HT-29, 72 h): 352 nM; IC50 ([8]; Homo sapiens, MCF7, 72 h): 828 nM; IC50 [9]: 362 ± 96 nM; Kd [10]: 123 ± 8 nM; Kd [11]: 85 ± 3 nM; Selectivity α-1 / α-2 [11]: 1.5; Kd [12]: 108 ± 17 nM; Selectivity α-1 / α-3 [12]: 1.1

For `C[C@]12CC[C@H](O)C[C@@H]1CC[C@@H]1[C@@H]2CC[C@]2(C)[C@@H](C3=CC(=O)OC3)CC[C@]12O` [Uzarigenin], which IC50 [1, 13] is on record?
Its IC50 is 5140 nM.

What about the IC50 [2, 13] of the same compound?
The IC50 was greater than 10000 nM.

What about the IC50 [3, 13] of the same compound?
The IC50 was 7920 nM.

And the IC50 [4, 13]?
The IC50 was 6280 nM.

What about the IC50 [5, 13] of the same compound?
Its IC50 is 2250 nM.

And the IC50 [6, 13]?
The IC50 was 3170 nM.

And the IC50 [7, 13]?
Its IC50 is 6440 nM.

What about the IC50 [8, 13] of the same compound?
Its IC50 is greater than 10000 nM.

And the Kd [10]?
Its Kd is 1100 nM.

And the Kd [11]?
Its Kd is 883 ± 56 nM.

What about the “Selectivity α-1 / α-2” value [11] of the same compound?
Its value is 1.3.

And the Kd [12]?
The Kd was 1280 nM.

And the “Selectivity α-1 / α-3” value [12]?
Its value is 0.9.
